We go through one compound from patent US5610185A, “Method for the treatment of hyperproliferative epithelial skin diseases by topical application of hydroxylated aromatic protein cross-linking compounds” (The United States of America as represented by the …, priority 1995, dated 1997).

Assay [1] has as its system HPV 18 infected human keratinocytes. The assay is described as follows: Cornified envelope (cross-linked protein) assay, HPV 18 infected keratinocytes. The format is cell-based. The settings on record: 48 h, 0.1-1 mM. The source says:
(§1) FIG. 1. MC Increases Cross-linked Protein in Epidermal Cell Lines. Black squares represent HPV 18 human epithelial keratinocytes; black circles represent SV 40 infected human keratinocytes; black triangles represent (SQCC-Y1) cells; white triangles represent (SP-1) benign tumor mouse keratinocytes; white squares represent (308 cells) benign mouse keratinocytes; and white circles represent (I-7) cells mouse squamous cell carcinoma.
Primary mouse keratinocytes were isolated from BALB/c newborn mouse skin. Primary keratinocytes, the benign neoplastic keratinocyte cell lines 308 and SP-1 (Strickland et al, Cancer Res., 48, 165-169, 1988) and the mouse squamous cell carcinoma line 1-7 (Greenhalgh et al., Proc. Natl. Acad. Sci., 87, 643-647, 1990) were grown in Eagle's minimal essential medium with 8% fetal calf serum (FCS) (chelexed) and penicillin 20 iu/ml, streptomycin 20 ug/ml (P/S). Unless otherwise indicated, the Ca^2+ concentration in medium was adjusted to 0.05 mM (Hennings et al., Cells, 19, 245-254, 1980). […]
(§2) Cells were incubated with MC for 48 hours, then cross-linked protein was isolated and measured as described in Example 1.
(§3) The assay measures insoluble cross-linked protein envelopes as described (Hough-Monroe et al. Analytical biochem., 199, 25-28, 1991), with modifications as follows. […] Absorbance of eluate was measured on a Titertek plate reader at 600 nm.

Assay [2] relates to primary mouse keratinocytes. Description: Cornified envelope (cross-linked protein) assay, primary mouse keratinocytes. The format is cell-based. On the procedure:
FIGS. 3A and 3B. A: Time course for cornification of primary mouse keratinocytes in response to MC. Boxes represent […] Ca^2+, triangles represent 100 μM MC, 1.4 mM Ca^2+, and solid circles represent 1 mM MC, 1.4 mM Ca^2+. […] Cells were incubated in medium with 1.4 mM Ca^2+ and MC for 4 hours, then were incubated with MTT (0.5 mg/ml in medium) for a further 4 hours before determination of formazan production.
Primary mouse keratinocytes were isolated from BALB/c newborn mouse skin. Primary keratinocytes, the benign neoplastic keratinocyte cell lines 308 and SP-1 (Strickland et al, Cancer Res., 48, 165-169, 1988) and the mouse squamous cell carcinoma line 1-7 (Greenhalgh et al., Proc. Natl. Acad. Sci., 87, 643-647, 1990) were grown in Eagle's minimal essential medium with 8% fetal calf serum (FCS) (chelexed) and penicillin 20 iu/ml, streptomycin 20 ug/ml (P/S). Unless otherwise indicated, the Ca^2+ concentration in medium was adjusted to 0.05 mM (Hennings et al., Cells, 19, 245-254, 1980). A431 human epidermoid carcinoma cells were obtained from ATCC, Rockville, Md., and were routinely passaged in DMEM with 10% FCS, P/S, glutamine (2 mM) and pyruvate (1 mM). SQCC-Y1 human squamous carcinoma cells and non-tumorigenic HPV 18 and SV 40 infected human keratinocytes were kindly donated by Dr. James Rheinwald of Harvard University, Boston, Mass. and Dr. Richard Schlegel of Georgetown University, Washington D.C. respectively. Human cells were cultured in DMEM/Ham's F12 1:1, 10% FCS, P/S and epidermal growth factor 10 ng/ml.
Primary mouse keratinocytes were incubated with MC for 0, 0.5, 1, 4 and 48 hours and were processed as follows.
The assay measures insoluble cross-linked protein envelopes as described (Hough-Monroe et al. Analytical biochem., 199, 25-28, 1991), with modifications as follows. Cornified envelopes were prepared by scraping monolayers into 2% sodium dodecylsulphate (SDS), 20 mM dithiothreitol (DTT) in phosphate buffered saline (PBS). Unattached cells were pelleted from medium and were resuspended in SDS/DTT and pooled with attached cells. Samples were boiled for 10 mins. Cornified envelope samples were examined under the microscope using phase contrast optics or were applied to an RC60 membrane (Schleicher and Schuell, Keene, N.H.) on a 96-well dot-blot apparatus attached to a vacuum. Samples were washed three times with SDS/DTT and the resultant protein spots on RC60 membrane were fixed and stained as described. Sports were excised and eluted with 1% NH3 OH concentrated solution, 66% methanol (200 ul) overnight. Absorbance of eluate was measured on a Titertek plate reader at 600 nm.
Cells were seeded at low density and were treated with MC for 3 days. Cells were then counted and increase in cell number was compared to untreated controls, or cells were processed for cross-linked protein.
Inhibitors were added 30 mins before MC or stsp (FIG. 6). Cross-linked protein was measured by the cornified envelope assay, described in Example 2.

The test system of assay [3] is SQCC-Y1 human squamous carcinoma cells. Description: Cornified envelope (cross-linked protein) assay, SQCC-Y1 cells. In kind it is cell-based. The settings on record: SQCC-Y1, 48 h, 0.1-1 mM.
Assay [4] deals with SP-1 benign tumor mouse keratinocytes. The assay is described as follows: Cornified envelope (cross-linked protein) assay, SP-1 cells. The format is cell-based.
Source text: as §1
FIGS. 2A and 2B, 2C and 2D show color phase contrast photographs. SP-1 cells were treated with vehicle (A and C) or 250 μM MC (B and D) for 48 hours. In A and B phase contrast photomicrographs were taken.
Primary mouse keratinocytes were isolated from BALB/c newborn mouse skin. […]
as §2, §3

The test system of assay [5] is SP-1 cell tumors grafted on athymic nude mice. Description: Grafted SP-1 cell tumor formation in nude mice. As to conditions: topical MC, 1 mM and 100 mM; twice weekly for two weeks or 5 days each week for three weeks. In kind it is in vivo, mouse. As for the experimental part:
FIGS. 10A and 10B. […] Numbers above bars denote the number of animals with tumors/the number of animals in the group. In panel A, MC was applied twice weekly for two weeks. In panel B, MC was applied on 5 days each week for three weeks.
Skin grafting was performed on athymic nude mice using 0.5×10^6 SP-1 cells with 8×10^6 newborn SENCAR mouse dermal fibroblasts as described (Strickland et al., Carcinogenesis, 14, 205, 1993). Domes (plastic covers placed over the site of skin grafting) were removed one week after grafting, and after a further week, topical application of MC commenced. The agent was applied in 25 ul 90% acetone, 10% DMSO vehicle. Weekly, tumor measurements were recorded up to 5 weeks after grafting.
Grafting was performed as described above. Tumors were measured using calipers at the termination of the experiment and tumors were fixed and sections were taken to confirm the tumor phenotype by microscopy.

Each structure is given as a SMILES string. “Also recorded” adds a separate entry of the source.

On to `COC(=O)C=Cc1cc(O)ccc1O` [MC, methyl 2,5-dihydroxycinnamate], for which the “cross-linked protein (envelope production)” value is “induced crosslinked envelope production; also recorded: increased cross-linked protein in a dose-dependent manner” in assay [1]; “induced crosslinked envelope production; also recorded: increased cross-linked protein in a dose-dependent manner” in assay [2] (primary mouse keratinocytes, 48 h, 0.1-1 mM); “induced crosslinked envelope production; also recorded: increased cross-linked protein in a dose-dependent manner” in assay [3]; “induced crosslinked envelope production; also recorded: increased cross-linked protein in a dose-dependent manner” in assay [4] (SP-1, 48 h, 0.1-1 mM). Further, the “cornification after 48 hours” value in assay [2] (100 μM, 48 hours) is on record as “effective”; in assay [2] (1 mM, 48 hours), “effective”. Further, the “time within which cornification / cross-linking occurs or commences” value in assay [2] (1 mM, primary mouse keratinocytes) was not above 4 h. In addition, the “cross-linked protein at 4° C. and 37° C.” value in assay [2] (4° C. and 37° C., 48 hours) was “took place at 4 °C and 37 °C; also recorded: Induces Cross-linked protein; also recorded: able to induce cross-linked protein effectively at 4° or 37 °C”. Besides, in assay [2] (Keratinocyte, 72 h, primary mouse keratinocytes, 3 days, read-out: concentration required to produce protein cross-linking), the minimal effective concentration was more than 50 µM. In addition, in assay [2] (LTB 2 and HPB 2 at 100 μM, MC 75 or 1000 μM or staurosporine 10 nM, 48 hours), the “effect of transglutaminase inhibitors on cross-linking activity” value is “not affected by transglutaminase inhibitors; also recorded: not inhibited by transglutaminase (TGase) inhibitors; also recorded: do not Prevent Protein Cross-linking”. For the same compound, in assay [4] (SP-1, 250 μM, 48 hours), the “formation of cross-linked cornified envelopes (phase contrast)” value was “formation of cross-linked cornified envelopes”. For the same compound, in assay [5], the “growth / formation of grafted SP-1 tumors” value is recorded as “inhibited the growth of tumors; also recorded: inhibits Grafted SP-1 cell Tumor Formation; also recorded: inhibit tumor formation”.
